Legend:
[1] = target: T1, cholesterol ester hydrolase (CEH) / cholesterol esterase (EC 3.1.1.13) (Bos taurus, UniProt P30122); assay: In vitro inhibition of cholesteryl ester formation by cholesterol esterase (CEH); assay type: biochemical, bovine
T1 construct: purchased Sigma Company, St. Louis, Mo., U.S.A. C-1892; host or cells: bovine pancreas
T1 sequence (P30122 19-597): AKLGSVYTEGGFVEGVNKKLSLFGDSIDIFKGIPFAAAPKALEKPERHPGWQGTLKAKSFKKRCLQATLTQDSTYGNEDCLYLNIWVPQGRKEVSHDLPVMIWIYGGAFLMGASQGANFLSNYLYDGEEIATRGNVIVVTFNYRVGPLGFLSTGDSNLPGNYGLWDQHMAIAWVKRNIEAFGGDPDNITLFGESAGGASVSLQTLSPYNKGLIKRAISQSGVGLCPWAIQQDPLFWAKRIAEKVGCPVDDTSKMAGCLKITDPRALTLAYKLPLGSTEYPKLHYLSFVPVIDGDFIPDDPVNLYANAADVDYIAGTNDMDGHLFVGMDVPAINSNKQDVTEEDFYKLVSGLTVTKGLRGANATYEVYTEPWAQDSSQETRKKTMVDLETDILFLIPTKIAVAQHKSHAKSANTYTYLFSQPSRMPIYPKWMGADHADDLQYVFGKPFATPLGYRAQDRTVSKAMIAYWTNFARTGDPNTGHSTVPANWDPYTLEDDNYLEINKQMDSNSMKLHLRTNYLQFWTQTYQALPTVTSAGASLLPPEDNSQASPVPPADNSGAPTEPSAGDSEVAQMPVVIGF
From the text: (§1) The in vitro and in vivo standard experimental test procedures used to establish the ability of the anticholesterolemic compounds of this invention to prevent cholesteryl ester formation and to inhibit cholesterol absorption, are given below and the biological results are presented in Table I.
In Vitro Test Procedure: The ability of the compounds of this invention to inhibit the formation of cholesteryl esters and thereby interfere with and prevent assimilation of cholesterol into the lymphatic system and ultimately the blood stream was established by incubating the compounds at 37° C. with a mixture of cholesterol and oleic acid in the presence of buffered cholesterol esterase [(EC 3.1.1.13) Sigma Company, St. Louis, Mo., U.S.A., No. C-1892, from bovine pancreas] and measuring the amount of ester formed, according to the procedure of Field, J. of Lipid Research, 25, 389 (1984).

[2] = tested on: absorption of 14C-cholesterol; assay: In vivo cholesterol absorption, [4-14C] cholesterol, serum radioactivity at six hours, normal rats; details: 10 mg/kg oral, 6 hr, normal rat, percent decrease compared to control
Procedure: as §1
In Vivo Assay: The in vivo cholesterol absorption studies were conducted in normal rats by oral administration of the compound being tested in propylene glycol and olive oil followed by oral administration of [4-^14 C] cholesterol in propylene glycol and olive oil, otherwise following the procedure of Cayen et al., J. Lipid Res. 20, 162 (1979). The serum radioactivity was measured at six hours after dosing. The results of this study are reported in the following Table I as percent decrease compared to control.

Compound	IC50 [1] [µM]	In Vivo Results Effect on Absorption of 14C-chol, % Decrease [2] [%]	IC25 ([1]; IC25 printed in the IC50 column, 37° C., cholesterol and oleic acid, cholesterol esterase from bovine pancreas) [µM]
CCCCCCNC(=O)Oc1ccc2oc3ccccc3c2c1 [Example 3, Hexylcarbamic acid 2-dibenzofuranyl ester]	9.3	37	
CCCCNC(=O)Oc1ccc2oc3ccccc3c2c1 [Example 1, Butylcarbamic acid 2-dibenzofuranyl ester]	25		
CCNC(=O)Oc1ccc2oc3ccccc3c2c1 [Example 8, Ethylcarbamic acid 2-dibenzofuranyl ester]	18.9	18	
O=C(NCC1CCCCC1)Oc1ccc2oc3ccccc3c2c1 [Example 6, (Cyclohexylmethyl)carbamic acid 2-dibenzofuranyl ester]	13.8	43	
CCCCCCCCCCCCNC(=O)Oc1ccc2oc3ccccc3c2c1 [Example 7, Dodecylcarbamic acid 2-dibenzofuranyl ester]		13	7.2
CNC(=O)Oc1ccc2oc3ccccc3c2c1 [Example 5, Methylcarbamic acid 2-dibenzofuranyl ester]	42		
CC(C)CCCC(C)NC(=O)Oc1ccc2oc3ccccc3c2c1 (centres unmarked) [Example 2, (1.5-Dimethylhexyl) carbamic acid 2-dibenzofuranyl ester]	3	33	
O=C(NCCCCc1ccccc1)Oc1ccc2oc3ccccc3c2c1 [Example 4, (4-Phenylbutyl)carbamic acid 2-dibenzofuranyl ester]	68	44	
